Assay results from patent US10842749B2, “Compositions and methods of treating therapy resistant cancer and uses thereof” (priority 2012, dated 2020).

Key:
4T1 lung metastasis [1] = assay: 4T1 lung metastasis model, pilot study (two treatments); format: in vivo, BALB/c mice; details: 6 mg/kg on day of surgery and 10 days later
Excerpt: All mice were sacrificed three weeks after the first treatment, and lung tissues were examined for tumor metastasis. […] The arrows indicate tumor nodules in the lung (FIG. 5F-2).
Thus the 4T1 syngeneic tumor mice represent a second Triple Negative Breast Cancer (TNBC) tumor model in this study. When inoculated into the mammary gland fat pad of BALB/c mice, 4T1 tumor cells formed rapidly growing primary tumors. If left untreated, all of the mice would eventually develop lung metastasis from primary tumors. In a pilot study, surgical removal of primary tumors (about 400 mm^3 in size) was performed, and then PBS, Dox, pDox, or Porous silicon/pDox was administered once immediately after surgery and again 10 days post-surgery.

[2] = system: MDA-MB-231 human breast cancer lung metastasis; assay: Murine model of MDA-MB-231 human breast cancer lung metastasis; format: in vivo, nude mice; details: Dox 3 mg/kg weekly, 6 weeks
Protocol: (§1) Applicants selected the murine model of MDA-MB-231 human breast cancer lung metastasis, widely used to study mechanism of pathology and for drug development^37-39, to evaluate therapeutic efficacy of porous silicon/pDox. […] Applicants treated the tumor-bearing mice with free pDox, porous silicon/pDox, and the clinically available drugs doxorubicin and Doxil, beginning one week after tumor inoculation and lasting for 6 weeks. Drugs were dosed biweekly at 6 mg/kg to mice in all treatment groups (10 mice per group) except free Dox.

[3] = Heart H&E staining and body weight in treated tumor mice
Protocol: FIGS. 4A-4C show H&E staining of heart tissues in mice treated with 6 mg/kg free Dox, Doxil, or porous silicon/pDox for 6 weeks.
as §1

4T1 lung metastasis [4] = assay: 4T1 lung metastasis model, follow-up study (weekly x 4 after surgery)
Protocol: 4T1 tumor cells were inoculated in the fourth mammary gland fat pad of female BALB/c mice. The primary tumors were surgically removed when they reached 250-300 mm3, and mice (n=10 mice/group) were treated weekly with 6 mg/kg Dox, Doxil, pDox, or Porous silicon/pDox for four consecutive weeks. Tumor growth was monitored by tracking bioluminescent intensity with the Xenogene IVIS-200 imaging system.
To generate the mouse 4T1 lung metastasis model, BALB/c mice were inoculated with 4T1 cells (5×10^4 cells/mouse) into the mammary gland fat pad. […] In the follow-up study, 4T1 cells that were engineered to express luciferase and GFP, and were inoculated into the mammary gland fat pads of female BALB/c mice. The primary tumors were surgically removed once they reached 250-300 mm^3. Mice were treated with 6 mg/kg of the therapeutic agents weekly for 4 weeks, and subsequently maintained to assess survival benefit from treatments.
To evaluate drug dosing requirements and sustainability after administration, Applicants applied a different drug regimen to BALB/c mice bearing 4T1 tumors. Applicants performed complete surgical removal of the primary tumors once they reached 250-300 mm3, and confirmed that the extraction was thorough by the lack of bioluminescence from the luciferase- and GFP-bearing mammary gland fat pads (FIG. 5A). […]

[5] = Tissue distribution of Dox by HPLC in MDA-MB-231 lung metastasis mice
Protocol: They were sacrificed 1 hour, 1 day, or 7 days later. Dox concentration in major organs was analyzed by HPLC.
Quantitation of doxorubicin was performed using Daunorubicin (Dau, Sigma) as an internal standard^49. Briefly, tissues were homogenized in PBS (100 mg tissue/330 μL PBS), and then mixed with 10 μL Dau (50 μg/mL). A 4-fold volume of the extraction solution containing chloroform and methanol (3/1, v/v) was subsequently added. The mixture was vortexed for 1 minute, and centrifuged at 13,000 rpm for 10 minutes to separate the aqueous and organic phases. The organic phase was collected, and the solvent was evaporated at 25° C. under a flow of nitrogen. The extract was dissolved in 100 μL methanol, and a 10 μL aliquot was used for HPLC analysis.

MDA-MB-231 cells = assay: Intracellular trafficking of Dox and pDox; format: cell-based, human; details: fluorescence microscopy
Protocol: FIGS. 2A-2H show vesicular transport of pDox in tumor cells and effective killing of tumor cells carrying an overexpressed multidrug resistance gene mediated by pDox. […] The presence of doxorubicin (red) in subcellular organelle was visualized by fluorescence microscopy. Nuclei were stained blue with DAPI and late endosomes/lysosomes were stained green with LysoTracker. Nuclear accumulation could be detected as early as 15 minutes after treatment of cells with Dox, while co-localization of Dox with LysoTracker was apparent in pDox treated cells 15 minutes and 1 hour after treatment. […] The cells were sensitive to pDox, but resistant to treatment with free Dox. FIG. 2D depicts fluorescence images of subcellular organelles. Nuclei were stained in blue DAPI and lysosomes were stained in green with LysoTracker. […]
Applicants conducted studies to compare cellular uptake and subcellular trafficking of free Dox and pDox nanoparticles in MDA-MB-231 cells. […] However, no nuclear accumulation was detected in the pDox-treated cells at the same time (FIG. 2A and FIG. 2D). The red fluorescence from pDox could be co-localized with the green LysoTracker-positive subcellular organelles beginning at 15 minutes, and reached a high level one hour after pDox treatment (FIG. 2A and FIG. 2D), indicating pDox entered tumor cells via vesicular transport. […]

MDA-MB-231/MDR cells = assay: Cell viability of MDR1-transfected MDA-MB-231/MDR cells; format: cell-based, human; details: cell viability 72 hours after treatment
Protocol: FIGS. 2A-2H show vesicular transport of pDox in tumor cells and effective killing of tumor cells carrying an overexpressed multidrug resistance gene mediated by pDox. […] The presence of doxorubicin (red) in subcellular organelle was visualized by fluorescence microscopy. Nuclei were stained blue with DAPI and late endosomes/lysosomes were stained green with LysoTracker. Nuclear accumulation could be detected as early as 15 minutes after treatment of cells with Dox, while co-localization of Dox with LysoTracker was apparent in pDox treated cells 15 minutes and 1 hour after treatment. […] The cells were sensitive to pDox, but resistant to treatment with free Dox. FIG. 2D depicts fluorescence images of subcellular organelles. Nuclei were stained in blue DAPI and lysosomes were stained in green with LysoTracker. Images of Dox, nuclei and lysosomes were merged to show subcellular localization of Dox at different time points.
Many breast cancer patients are resistant to chemotherapy due to drug efflux. About 25-50% of previously untreated breast cancers express the MDR1 gene encoding p-glycoprotein, one of the drug efflux pump proteins^17. Overexpression of MDR1 has also been attributed to acquired resistance to anthracyclines and cross-resistance to other chemotherapy drugs in the clinic^15. […]

COc1cccc2c1C(=O)c1c(O)c3c(c(O)c1C2=O)C[C@@](O)(C(=O)CO)C[C@@H]3O[C@H]1C[C@H](N)[C@H](O)[C@H](C)O1 [Dox, doxorubicin]
lung tumor nodules / metastasis (4T1 lung metastasis [1]): multiple, large tumor nodules in the lung
extension of median survival over control groups ([2]; pDox 6 mg/kg biweekly): 2 weeks
Median survival ([2]; Doxil, pDox, MSV/pDox 6 mg/kg biweekly, tail vein): 98.5 days
heart histology (H&E) ([3]; 6 mg/kg biweekly): deformation of myocardial fibers
body weight change ([3]; Dox 3 mg/kg weekly, Doxil, porous silicon/pDox 6 mg/kg biweekly): initial drop in body weight but recovered shortly
extension of median survival over the PBS control (4T1 lung metastasis [4]; 6 mg/kg weekly for 4 weeks): 13 days
Median survival after tumor inoculation (4T1 lung metastasis [4]; 6 mg/kg weekly for 4 weeks after surgical removal of primary tumor): 62 days
Dox concentration in the heart ([5]; 6 mg/kg i.v., one hour after dosing): over 10 μg/g organ
plasma Dox ([5]; 1 hour post-dosing): barely detectable
time of nuclear accumulation after addition of drug (MDA-MB-231 cells): 15 min
sensitivity of MDR1-expressing cells to treatment (MDA-MB-231/MDR cells): resistant
